Measured values taken from ChEMBL document CHEMBL4257491, “Discovery of indoleamine 2,3-dioxygenase inhibitors using machine learning based virtual screening” (Medchemcomm, 2018).
pIC50: −log10 of the molar value. Calls of active or inactive are those of the source. The rule behind the calls is not given here.

Assays:
[1] = molecular target: T1, Indoleamine 2,3-dioxygenase 1 (Homo sapiens, UniProt P14902); test: Inhibition of human HuH7 cell derived IDO1 expressed in Escherichia coli BL21 codon plus using L-tryptophan as substrate measured after 1 hr by fluorescence assay
Target sequence in this assay (P14902 whole entry): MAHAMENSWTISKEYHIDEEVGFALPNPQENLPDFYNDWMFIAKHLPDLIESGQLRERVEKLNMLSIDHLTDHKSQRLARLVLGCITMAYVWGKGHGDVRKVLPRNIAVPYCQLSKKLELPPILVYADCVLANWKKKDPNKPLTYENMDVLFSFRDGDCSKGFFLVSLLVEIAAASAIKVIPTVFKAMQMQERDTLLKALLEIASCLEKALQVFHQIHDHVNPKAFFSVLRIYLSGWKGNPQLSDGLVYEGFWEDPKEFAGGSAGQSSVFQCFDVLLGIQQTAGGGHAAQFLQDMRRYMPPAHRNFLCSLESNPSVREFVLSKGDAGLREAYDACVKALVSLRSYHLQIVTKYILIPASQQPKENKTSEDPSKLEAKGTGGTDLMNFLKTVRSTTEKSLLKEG

[2] = molecular target: T1, Indoleamine 2,3-dioxygenase 1; test: Inhibition of IDO1 in IFNgamma-stimulated human HuH7 cells at 1 uM using L-tryptophan as substrate measured after 24 hrs relative to control
Target sequence in this assay (P14902 whole entry, looked up): as the sequence (P14902 whole entry) above

[3] = molecular target: T1, Indoleamine 2,3-dioxygenase 1; test: Binding affinity to human HuH7 cell derived IDO1 expressed in Escherichia coli BL21 codon plus up to 10 uM by surface plasmon resonance analysis
Target sequence in this assay (P14902 whole entry, looked up): as the sequence (P14902 whole entry) above

[4] = Cytotoxicity against human HuH7 cells assessed as survival rate at 1 uM after 24 hrs by MTT assay relative to control; assay type: cell-based, Huh-7; settings: read-out: Survival
[5] = molecular target: T1, Indoleamine 2,3-dioxygenase 1; test: Inhibition of IDO1 in IFNgamma-stimulated human HuH7 cells at 10 uM using L-tryptophan as substrate measured after 24 hrs relative to control
Target sequence in this assay (P14902 whole entry, looked up): as the sequence (P14902 whole entry) above

[6] = Cytotoxicity against human HuH7 cells assessed as survival rate at 10 uM after 24 hrs by MTT assay relative to control; assay type: cell-based, Huh-7; settings: read-out: Survival

Cc1cccc2c3c(ccc12)C1=C(C(=O)C3=O)C(C)CO1 (configuration not stated)
pIC50 [1]: 5.89 | inhibition [2]: 54.3% | Activity [3]: Active | viability at 24 h, 1 µM [4]: 94.7%

Cc1coc2c1C(=O)C(=O)c1c-2ccc2c1C=CCC2(C)C
pIC50 [1]: 5.33 | inhibition [2]: 66.7% | Activity [3]: Active | viability at 24 h, 1 µM [4]: 93%

Cc1c(-c2c(C)c(O)c3ccccc3c2O)oc2c1C(=O)C(=O)c1c-2ccc2c1CCCC2(C)C
pIC50 [1]: 5.39 | inhibition [5]: 21% | Activity [3]: Active | viability at 24 h, 10 µM [6]: 97.1%
